Source: patent publication US20210047653A1, “COMPOSITIONS AND METHODS FOR REGULATING A BIOLOGICAL PROCESS” (The University of Memphis Research Foundation, priority 2018, published 2021)

System: endogenous BMP-2
Assay: CRISPR activation of endogenous BMP-2, qPCR in transfected HEK-293T cells
Type: cell-based, human
Settings: qPCR 24 hours after transfection with constitutively-expressed dCas9-VPR, normalized to HPRT
Method: HEK-293T cells were transfected with constitutively-expressed dCas9-VPR (Addgene #63798) and gRNA-expressing plasmids (Addgene #41824, sequences targeting the 150 bp region of the transcription start site of the endogenous BMP-2 was cloned into the vector; gRNA2 seq: […], gRNA3 seq: […], GFP seq:). After 24 hours, BMP-2 induction was measured by qPCR, following manufacturer protocols. Groups of HEK-293T cells tested were: Untransfected (UT), dCas9-VPR (VPR), GFP, gRNA2, and gRNA3. All groups were normalized to Hypoxanthine-guanine phosphoribosyltransferase (HPRT) expression (FIG. 27). Untransfected, dCas9-VPR, gRNA2, and gRNA3 groups were compared to GFP to elucidate increase in expression levels (FIG. 28).

| Substance | induction of endogenous BMP-2 expression compared to GFP group [fold] |
| --- | --- |
| gRNA2: gRNA-expressing plasmid targeting the 150 bp region of the transcription start site of endogenous BMP-2; seq GGCGAGCCGCGCCGCGAAGG (expressed from plasmid) | 112 |
| gRNA3: gRNA-expressing plasmid targeting the 150 bp region of the transcription start site of endogenous BMP-2; seq GCTCGCCGGGGATCCCCGAG (expressed from plasmid) | 77 |
